{"source": "patent US7776858B2", "about": "“Methods of treatment of chronic pain using eszopiclone” (Sepracor Inc., priority 2004, dated 2010)", "key": {"[1]": {"test_system": "subjects with insomnia related to rheumatoid arthritis", "experiment": "Arthritis Self-Efficacy Scale, clinical study of eszopiclone 3 mg vs placebo", "type": "in vivo, human", "conditions": "3 mg nightly, visit 6 (EOS), ITT", "procedure": "(§1) The study was aimed at observing the effect of eszopiclone 3 mg compared to placebo on daytime function in subjects with insomnia related to rheumatoid arthritis. The study was a multicenter, randomized, double-blind, placebo controlled, parallel group study.\n(§2) A total of 153 subjects were randomized. Among them, 77 received 3 mg of eszopiclone (ESZ) nightly (at bedtime) for four weeks and 76 received matching placebo (PBO). […] In addition, subjects had insomnia symptoms including wake time after sleep onset (WASO) of ≧45 minutes, and total sleep time ≦6.5 hours. Diagnosis of rheumatoid arthritis predated the onset of insomnia symptoms.\n(§3) During the double blind treatment, subjects were dosed with 3 mg eszopiclone (ESZ) or matching placebo (PBO) nightly (at bedtime) for four weeks. Data was analyzed with one-sided significance tests."}, "[2]": {"test_system": "subjects with insomnia related to rheumatoid arthritis", "experiment": "Subject Pain Severity Assessment (0 to 10 scale), clinical study of eszopiclone 3 mg vs placebo", "type": "in vivo, human", "procedure": "as §1\nas §2, with “(PBO). The discontinuation rates were low, 5.2% in the ESZ group and 9.2% in the PBO group. The patient population was predominantly female (87%) and Caucasian (84%). Mean age was 52, with a range of 27-64.” for “(PBO).”\nas §3"}, "conscious dogs": {"test_system": "conscious dogs", "experiment": "Dose escalation safety study, cardiovascular and respiratory parameters after acute intravenous administration", "conditions": "acute intravenous, 3, 5 and 12 mg/kg", "procedure": "To establish the safety of eszopiclone, a dose escalation study was carried out. Cardiovascular and respiratory parameters were evaluated in conscious dogs following acute intravenous administration of (R)-, (S)- or racemic zopiclone at three doses (3, 5 and 12 mg/kg)."}, "mice": {"test_system": "mice", "experiment": "Antagonism of oxotremorine induced salivation", "type": "in vivo", "conditions": "doses up to 300 mg/kg, p.o.", "procedure": "Eszopiclone was evaluated for antimuscarinic activity in vivo."}, "[3]": {"conditions": "3 mg nightly, visit 5 (Week 4), ITT, scale 0 to 10"}}}
{"smiles": "CN1CCN(C(=O)O[C@H]2c3nccnc3C(=O)N2c2ccc(Cl)cn2)CC1", "note": "[Eszopiclone, (+) 6-(5-chloropyrid-2-yl)-5-(4-methylpiperazin-1-yl)carbonyloxy-7-oxo-6,7-dihydro-5H-pyrrolo[3-4-b]pyrazine]", "values": [{"measurement": "Arthritis Self-Efficacy Scale Function, Observed Value, Maximum", "setting": "[1]", "result": 90.0}, {"measurement": "Arthritis Self-Efficacy Scale Function, Observed Value, Mean (SD)", "setting": "[1]", "result": "64.1 (20.5)"}, {"measurement": "Arthritis Self-Efficacy Scale Function, Observed Value, Median", "setting": "[1]", "result": 65.0}, {"measurement": "Arthritis Self-Efficacy Scale Function, Observed Value, Minimum", "setting": "[1]", "result": 23.0}, {"measurement": "Arthritis Self-Efficacy Scale Other Symptoms, Change from Baseline, 25th Percentile", "setting": "[1]", "result": "−2.5"}, {"measurement": "Arthritis Self-Efficacy Scale Other Symptoms, Change from Baseline, 75th Percentile", "setting": "[1]", "result": 10.0}, {"measurement": "Arthritis Self-Efficacy Scale Other Symptoms, Change from Baseline, Maximum", "setting": "[1]", "result": 39.0}, {"measurement": "Arthritis Self-Efficacy Scale Other Symptoms, Change from Baseline, Mean (SD)", "setting": "[1]", "result": "3.8 (10.7)"}, {"measurement": "Arthritis Self-Efficacy Scale Other Symptoms, Change from Baseline, Median", "setting": "[1]", "result": 3.0}, {"measurement": "Arthritis Self-Efficacy Scale Other Symptoms, Change from Baseline, Minimum", "setting": "[1]", "result": "−24.0"}, {"measurement": "Arthritis Self-Efficacy Scale Other Symptoms, Observed Value, 25th Percentile", "setting": "[1]", "result": 31.0}, {"measurement": "Arthritis Self-Efficacy Scale Other Symptoms, Observed Value, 75th Percentile", "setting": "[1]", "result": 51.0}, {"measurement": "Arthritis Self-Efficacy Scale Other Symptoms, Observed Value, Maximum", "setting": "[1]", "result": 59.0}, {"measurement": "Arthritis Self-Efficacy Scale Other Symptoms, Observed Value, Mean (SD)", "setting": "[1]", "result": "40.6 (12.6)"}, {"measurement": "Arthritis Self-Efficacy Scale Other Symptoms, Observed Value, Median", "setting": "[1]", "result": 41.5}, {"measurement": "Arthritis Self-Efficacy Scale Other Symptoms, Observed Value, Minimum", "setting": "[1]", "result": 8.0}, {"measurement": "Arthritis Self-Efficacy Scale Overall, Change from Baseline, 25th Percentile", "setting": "[1]", "result": "−3.0"}, {"measurement": "Arthritis Self-Efficacy Scale Overall, Change from Baseline, 75th Percentile", "setting": "[1]", "result": 32.0}, {"measurement": "Arthritis Self-Efficacy Scale Overall, Change from Baseline, Maximum", "setting": "[1]", "result": 84.0}, {"measurement": "Arthritis Self-Efficacy Scale Overall, Change from Baseline, Mean (SD)", "setting": "[1]", "result": "14.0 (30.5)"}, {"measurement": "Arthritis Self-Efficacy Scale Overall, Change from Baseline, Median", "setting": "[1]", "result": 12.5}, {"measurement": "Arthritis Self-Efficacy Scale Overall, Change from Baseline, Minimum", "setting": "[1]", "result": "−89.0"}, {"measurement": "Arthritis Self-Efficacy Scale Overall, Observed Value, 25th Percentile", "setting": "[1]", "result": 111.0}, {"measurement": "Arthritis Self-Efficacy Scale Overall, Observed Value, 75th Percentile", "setting": "[1]", "result": 163.0}, {"measurement": "Arthritis Self-Efficacy Scale Overall, Observed Value, Maximum", "setting": "[1]", "result": 193.0}, {"measurement": "Arthritis Self-Efficacy Scale Overall, Observed Value, Mean (SD)", "setting": "[1]", "result": "134.5 (35.9)"}, {"measurement": "Arthritis Self-Efficacy Scale Overall, Observed Value, Median", "setting": "[1]", "result": 133.0}, {"measurement": "Arthritis Self-Efficacy Scale Overall, Observed Value, Minimum", "setting": "[1]", "result": 50.0}, {"measurement": "Arthritis Self-Efficacy Scale Pain and Other Symptoms, Change from Baseline, 25th Percentile", "setting": "[1]", "result": "−5.0"}, {"measurement": "Arthritis Self-Efficacy Scale Pain and Other Symptoms, Change from Baseline, 75th Percentile", "setting": "[1]", "result": 17.0}, {"measurement": "Arthritis Self-Efficacy Scale Pain and Other Symptoms, Change from Baseline, Maximum", "setting": "[1]", "result": 52.7}, {"measurement": "Arthritis Self-Efficacy Scale Pain and Other Symptoms, Change from Baseline, Mean (SD)", "setting": "[1]", "result": "7.0 (18.5)"}, {"measurement": "Arthritis Self-Efficacy Scale Pain and Other Symptoms, Change from Baseline, Median", "setting": "[1]", "result": 7.5}, {"measurement": "Arthritis Self-Efficacy Scale Pain and Other Symptoms, Change from Baseline, Minimum", "setting": "[1]", "result": "−44.0"}, {"measurement": "Arthritis Self-Efficacy Scale Pain and Other Symptoms, Observed Value, 25th Percentile", "setting": "[1]", "result": 55.0}, {"measurement": "Arthritis Self-Efficacy Scale Pain and Other Symptoms, Observed Value, 75th Percentile", "setting": "[1]", "result": 88.0}, {"measurement": "Arthritis Self-Efficacy Scale Pain and Other Symptoms, Observed Value, Maximum", "setting": "[1]", "result": 107.0}, {"measurement": "Arthritis Self-Efficacy Scale Pain and Other Symptoms, Observed Value, Mean (SD)", "setting": "[1]", "result": "70.0 (21.0)"}, {"measurement": "Arthritis Self-Efficacy Scale Pain and Other Symptoms, Observed Value, Median", "setting": "[1]", "result": 71.0}, {"measurement": "Arthritis Self-Efficacy Scale Pain and Other Symptoms, Observed Value, Minimum", "setting": "[1]", "result": 27.0}, {"measurement": "Arthritis Self-Efficacy Scale Pain, Change from Baseline, 25th Percentile", "setting": "[1]", "result": "−4.0"}, {"measurement": "Arthritis Self-Efficacy Scale Pain, Change from Baseline, 75th Percentile", "setting": "[1]", "result": 8.0}, {"measurement": "Arthritis Self-Efficacy Scale Pain, Change from Baseline, Maximum", "setting": "[1]", "result": 35.0}, {"measurement": "Arthritis Self-Efficacy Scale Pain, Change from Baseline, Mean (SD)", "setting": "[1]", "result": "2.7 (10.5)"}, {"measurement": "Arthritis Self-Efficacy Scale Pain, Change from Baseline, Median", "setting": "[1]", "result": 2.0}, {"measurement": "Arthritis Self-Efficacy Scale Pain, Change from Baseline, Minimum", "setting": "[1]", "result": "−20.0"}, {"measurement": "Arthritis Self-Efficacy Scale Pain, Observed Value, 25th Percentile", "setting": "[1]", "result": 22.0}, {"measurement": "Arthritis Self-Efficacy Scale Pain, Observed Value, 75th Percentile", "setting": "[1]", "result": 37.0}, {"measurement": "Arthritis Self-Efficacy Scale Pain, Observed Value, Maximum", "setting": "[1]", "result": 49.0}, {"measurement": "Arthritis Self-Efficacy Scale Pain, Observed Value, Mean (SD)", "setting": "[1]", "result": "29.2 (9.8)"}, {"measurement": "Arthritis Self-Efficacy Scale Pain, Observed Value, Median", "setting": "[1]", "result": 30.0}, {"measurement": "Arthritis Self-Efficacy Scale Pain, Observed Value, Minimum", "setting": "[1]", "result": 9.0}, {"measurement": "Arthritis Self-Efficacy Scale Function, Change from Baseline, Least Squares Means (SE) [2]", "setting": "[1]; ANCOVA", "result": "6.2 (1.6)"}, {"measurement": "Arthritis Self-Efficacy Scale Other Symptoms, Change from Baseline, Least Squares Means (SE) [2]", "setting": "[1]; ANCOVA", "result": "3.3 (1.1)"}, {"measurement": "Arthritis Self-Efficacy Scale Overall, Change from Baseline, Least Squares Means (SE) [2]", "setting": "[1]; ANCOVA", "result": "12.4 (2.9)"}, {"measurement": "Arthritis Self-Efficacy Scale Pain and Other Symptoms, Change from Baseline, Least Squares Means (SE) [2]", "setting": "[1]; ANCOVA", "result": "6.1 (1.8)"}, {"measurement": "Arthritis Self-Efficacy Scale Pain, Change from Baseline, Least Squares Means (SE) [2]", "setting": "[1]; ANCOVA", "result": "2.4 (0.9)"}, {"measurement": "effect on change from baseline to the end of study in the Subject Pain Severity Assessment", "setting": "[2]; 3 mg nightly vs placebo", "result": "significant effect"}, {"measurement": "Subject Pain Severity Assessment, Change from Baseline, Least Squares Means (SE) [2]", "setting": "[2]; 3 mg nightly, visit 5 (Week 4), ITT, ANCOVA", "result": "−0.5 (0.2)"}, {"measurement": "Subject Pain Severity Assessment, Change from Baseline, 25th Percentile", "setting": "[2]; [3]", "result": "−2.0"}, {"measurement": "Subject Pain Severity Assessment, Change from Baseline, 75th Percentile", "setting": "[2]; [3]", "result": 0.5}, {"measurement": "Subject Pain Severity Assessment, Change from Baseline, Maximum", "setting": "[2]; [3]", "result": 7.0}, {"measurement": "Subject Pain Severity Assessment, Change from Baseline, Mean (SD)", "setting": "[2]; [3]", "result": "−0.5 (2.6)"}, {"measurement": "Subject Pain Severity Assessment, Change from Baseline, Median", "setting": "[2]; [3]", "result": "−1.0"}, {"measurement": "Subject Pain Severity Assessment, Change from Baseline, Minimum", "setting": "[2]; [3]", "result": "−7.0"}, {"measurement": "Subject Pain Severity Assessment, Observed Value, 25th Percentile", "setting": "[2]; [3]", "result": 2.5}, {"measurement": "Subject Pain Severity Assessment, Observed Value, 75th Percentile", "setting": "[2]; [3]", "result": 7.0}, {"measurement": "Subject Pain Severity Assessment, Observed Value, Maximum", "setting": "[2]; [3]", "result": 10.0}, {"measurement": "Subject Pain Severity Assessment, Observed Value, Mean (SD)", "setting": "[2]; [3]", "result": "4.6 (2.7)"}, {"measurement": "Subject Pain Severity Assessment, Observed Value, Median", "setting": "[2]; [3]", "result": 5.0}, {"measurement": "Subject Pain Severity Assessment, Observed Value, Minimum", "setting": "[2]; [3]", "result": 0.0}, {"measurement": "Blood gases and blood chemistries (pH, pCO2, pO2, hematocrit, and lactate)", "setting": "conscious dogs", "result": "remained unaffected"}, {"measurement": "cardiotoxicity by electrocardiogram (ECG)", "setting": "conscious dogs", "result": "No evidence of cardiotoxicity"}, {"measurement": "effect on blood pressure", "setting": "conscious dogs", "result": "dose dependent, transient decreases"}, {"measurement": "effect on heart rate", "setting": "conscious dogs", "result": "compensatory increase"}, {"measurement": "antagonism of oxotremorine induced salivation", "setting": "mice", "result": "neither (R)-, (S)-, nor racemic zopiclone significantly antagonized"}]}
